According to publication PMC6627609, “Targeting Quorum Sensing: High-Throughput Screening to Identify Novel LsrK Inhibitors” (International Journal of Molecular Sciences, 2019):
Where a name gives a salt, the structure may show the parent alone.

target: LsrK (Salmonella typhimurium, UniProt Q8ZKQ6); assay: biochemical; assay type: biochemical, S. typhimurium; conditions: not given
Sequence (Q8ZKQ6 whole entry): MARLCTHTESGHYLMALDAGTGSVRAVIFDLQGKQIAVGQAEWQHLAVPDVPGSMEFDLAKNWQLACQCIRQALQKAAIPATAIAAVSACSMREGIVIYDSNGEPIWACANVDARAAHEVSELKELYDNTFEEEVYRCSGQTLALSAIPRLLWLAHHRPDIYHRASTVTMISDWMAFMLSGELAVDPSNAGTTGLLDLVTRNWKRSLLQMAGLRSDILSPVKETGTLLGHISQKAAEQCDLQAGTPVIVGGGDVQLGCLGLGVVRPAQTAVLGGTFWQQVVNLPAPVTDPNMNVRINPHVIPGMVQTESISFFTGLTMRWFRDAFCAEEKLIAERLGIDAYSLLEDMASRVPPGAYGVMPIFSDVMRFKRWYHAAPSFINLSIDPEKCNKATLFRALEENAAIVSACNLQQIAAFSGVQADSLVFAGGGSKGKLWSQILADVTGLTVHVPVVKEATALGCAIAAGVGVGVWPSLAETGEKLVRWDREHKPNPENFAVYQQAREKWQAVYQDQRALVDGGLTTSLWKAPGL

First: CC[C@@H](C(=O)[C@@H](C)[C@@H](O)[C@H](C)[C@@H]1O[C@@H]([C@@H](CC)C(=O)O)CC[C@@H]1C)[C@H]1O[C@]2(C=C[C@@H](O)[C@]3(CC[C@@](C)([C@H]4CC[C@](O)(CC)[C@H](C)O4)O3)O2)[C@H](C)C[C@@H]1C [SALINOMYCIN. SODIUM]
Second: CO[C@H]1C[C@@H]2CC[C@@H](C)[C@@](O)(O2)C(=O)C(=O)N2CCCC[C@H]2C(=O)O[C@H]([C@H](C)C[C@@H]2CC[C@@H](O)[C@H](OC)C2)CC(=O)[C@H](C)/C=C(\C)[C@@H](O)[C@@H](OC)C(=O)[C@H](C)C[C@H](C)/C=C/C=C/C=C/1C [SIROLIMUS]
The inhibition at 50 µM of the first is lower: 2% for the first, 4% for the second.

Going from `C[n+]1cc2c3c(ccc2c2ccc4cc5c(cc4c21)OCO5)OCO3` [SANGUINARINE SULFATE] to `COc1ccc2c(c1)OC/C(=C\c1ccc(OC)c(O)c1)C2=O` [SAPPANONE A DIMETHYL ETHER], the inhibition at 50 µM falls from 84% to 2%.

Compared with `O=C(O)c1cn(-c2ccc(F)cc2)c2cc(N3CCNCC3)c(F)cc2c1=O` [SARAFLOXACIN HYDROCHLORIDE], `COc1cc(C2Oc3cc([C@H]4Oc5cc(O)cc(O)c5C(=O)[C@@H]4O)ccc3OC2CO)ccc1O` (some centres unmarked) [SILIBININ] is higher in inhibition at 50 µM: 0% for the first, 27% for the second.

Compared with `COc1cc2ccc(=O)oc2cc1O` [SCOPOLETIN], `COc1cc(C)c2c(c1C=O)Oc1c(c(C)c(O)c3c1C(O)OC3=O)OC2=O` (centres unmarked) [STICTIC ACID] is higher in inhibition at 50 µM: 1% for the first, 119% for the second.

Compared with `CO[C@H]1C[C@H](O[C@@H]2/C(C)=C/C[C@@H]3C[C@@H](C[C@]4(CC[C@H](C)[C@@H](C5CCCCC5)O4)O3)OC(=O)[C@@H]3C=C(C)/C(=N/O)[C@H]4OC/C(=C\C=C\[C@@H]2C)[C@]43O)O[C@@H](C)[C@@H]1O` [SELAMECTIN], `C[C@@H]1CC[C@@]2(NC1)O[C@H]1C[C@H]3[C@@H]4CC=C5C[C@@H](O)CC[C@]5(C)[C@H]4CC[C@]3(C)[C@H]1[C@@H]2C` [SOLASODINE] is higher in inhibition at 50 µM: 0% for the first, 1% for the second.

`CC1CCC(NC(=O)N(CCCl)N=O)CC1` (centres unmarked) [SEMUSTINE] and `C[C@]12CC[C@H]3[C@@H](CC[C@]4(O)C[C@@H](O)CC[C@]34C=O)[C@@]1(O)CC[C@@H]2C1=CC(=O)OC1` [STROPHANTHIDIN] are the same in inhibition at 50 µM: 0% for the first, 0% for the second.

Compared with `O=C(O)c1cc(O)c2c(c1)[C@H]([C@H]1c3cc(C(=O)O)cc(O)c3C(=O)c3c(O[C@@H]4O[C@H](CO)[C@@H](O)[C@H](O)[C@H]4O)cccc31)c1cccc(O[C@@H]3O[C@H](CO)[C@@H](O)[C@H](O)[C@H]3O)c1C2=O` [SENNOSIDE A], `OC[C@H]1O[C@H](O[C@]2(CCl)O[C@H](CCl)[C@@H](O)[C@@H]2O)[C@H](O)[C@@H](O)[C@H]1Cl` [SUCRALOSE] is higher in inhibition at 50 µM: 0% for the first, 3% for the second.

Compared with `O=C(O)C1=C[C@@H](O)[C@@H](O)[C@H](O)C1` [SHIKIMIC ACID], `CCC(C)(C)C(=O)O[C@H]1C[C@@H](C)C=C2C=C[C@H](C)[C@H](CC[C@@H]3C[C@@H](O)CC(=O)O3)[C@H]21` [SIMVASTATIN] is higher in inhibition at 50 µM: 1% for the first, 3% for the second.

Going from `O=C(O)CCCO` [SODIUM OXYBATE] to `CCCCC(CC)CCC(CC(C)C)OS(=O)(=O)O` (centres unmarked) [SODIUM TETRADECYL SULFATE], the inhibition at 50 µM rises from 1% to 98%.

Going from `NCCCNCCCCNCCCN` [SPERMINE] to `CC[C@H](/C=C/[C@@H](C)[C@H]1CC[C@H]2[C@@H]3CC=C4C[C@@H](O)CC[C@]4(C)[C@H]3CC[C@]12C)C(C)C` [STIGMASTEROL], the inhibition at 50 µM falls from 2% to 1%.

For `COc1cc(C)c2c(c1C=O)Oc1c(c(C)c(O)c3c1C(O)OC3=O)OC2=O` (centres unmarked) [STICTIC ACID], the IC50 was 3 µM.

same assay, conditions: 50 µM

Compared with `CC(C)CC(N(C)C)C1(c2ccc(Cl)cc2)CCC1.Cl` (centres unmarked) [SIBUTRAMINE HYDROCHLORIDE], `CC1=CC(=O)[C@H]2C(C)(C)CCC[C@]2(C)[C@@]1(O)CCc1ccoc1` [SOLIDAGENONE] is lower in “Inhibition (%)” value: 1 for the first, 0 for the second.

`Cc1c[nH]c2ccccc12` [SKATOLE] and `C1CCN2C[C@@H]3C[C@@H](CN4CCCC[C@@H]34)[C@H]2C1.I` [SPARTEINE HYDROIODIDE] are the same in “Inhibition (%)” value: 1 for the first, 1 for the second.

`CC(C)=CCC/C(C)=C/CC/C(C)=C/CC/C(C)=C/CC/C(C)=C/CC/C(C)=C/CC/C(C)=C/CC/C(C)=C/CC/C(C)=C/CO` [SOLANESOL] was tested, and the “Inhibition (%)” value was 1.
